The text below walks through data of patent publication US10280159B2 (AbbVie Deutschland GmbH & Co. KG, priority 2015, dated 2019).

Common to all, as to format: cell-based
The target of experiment [1] is T1, human S1PR1 (Homo sapiens, UniProt P21453).
T1 construct: host or cells: CHO-K1
The experiment can be described thus: Intracellular Ca2+ release (FLIPR) agonist potency, S1P1. In a few lines:
(§1)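 CHO-K1/receptor/aequorin/Gq/i5 cells, F-12 Ham + 10% FBS. Ca2+ release read on FLIPR Tetra. EC50 by nonlinear fit after normalizing to phospho-fingolimod reference curve.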

Experiment [2] deals with T2, human S1PR3 (Homo sapiens, UniProt Q99500).
T2 construct: host or cells: CHO-K1
As to the kind of experiment: Intracellular Ca2+ release (FLIPR) agonist potency, S1P3. The gist of the method: as §1

Experiment [3] deals with T3, human S1PR5 (Homo sapiens, UniProt Q9H228).
T3 construct: host or cells: CHO-K1
The experiment can be described thus: Intracellular Ca2+ release (FLIPR) agonist potency, S1P5. In a few lines: as §1

Experiment [4] deals with T4, human S1PR4 (Homo sapiens, UniProt O95977).
T4 construct: host or cells: CHO-K1
T4 sequence (O95977 1-384): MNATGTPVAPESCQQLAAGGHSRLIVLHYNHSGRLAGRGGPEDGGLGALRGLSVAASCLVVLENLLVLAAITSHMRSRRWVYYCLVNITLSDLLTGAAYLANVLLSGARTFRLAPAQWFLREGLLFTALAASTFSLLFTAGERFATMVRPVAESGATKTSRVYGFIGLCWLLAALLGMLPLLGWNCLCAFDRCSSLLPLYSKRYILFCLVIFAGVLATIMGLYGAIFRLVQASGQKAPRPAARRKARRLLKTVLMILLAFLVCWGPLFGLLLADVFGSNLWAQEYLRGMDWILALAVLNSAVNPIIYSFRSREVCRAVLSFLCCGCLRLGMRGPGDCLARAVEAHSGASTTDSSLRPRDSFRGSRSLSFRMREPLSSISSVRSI
As to the kind of experiment: Intracellular Ca2+ release (FLIPR) agonist potency, S1P4. In a few lines:
as §1

Where [5] appears, read: recombinant CHO-K1 cells expressing human S1PR1, aequorin, Gq/i5, Calcium 5 FLIPR, read-out: S1P1 EC50.
The mark [6] stands for this setting: recombinant CHO-K1 cells expressing human S1PR3, aequorin, Gq/i5, Calcium 5 FLIPR, read-out: S1P3 EC50.
The mark [7] stands for this setting: recombinant CHO-K1 cells expressing human S1PR5, aequorin, Gq/i5, Calcium 5 FLIPR, read-out: S1P5 EC50 range.
Where [8] appears, read: recombinant CHO-K1 cells expressing human S1PR4, aequorin, Gq/i5, Calcium 5 FLIPR, read-out: S1P4 EC50.

For orientation: EC50 means the concentration giving half of the maximal effect.

Like-named read-outs stand apart in the source and are kept apart here.

T2 sequence (Q99500 whole entry): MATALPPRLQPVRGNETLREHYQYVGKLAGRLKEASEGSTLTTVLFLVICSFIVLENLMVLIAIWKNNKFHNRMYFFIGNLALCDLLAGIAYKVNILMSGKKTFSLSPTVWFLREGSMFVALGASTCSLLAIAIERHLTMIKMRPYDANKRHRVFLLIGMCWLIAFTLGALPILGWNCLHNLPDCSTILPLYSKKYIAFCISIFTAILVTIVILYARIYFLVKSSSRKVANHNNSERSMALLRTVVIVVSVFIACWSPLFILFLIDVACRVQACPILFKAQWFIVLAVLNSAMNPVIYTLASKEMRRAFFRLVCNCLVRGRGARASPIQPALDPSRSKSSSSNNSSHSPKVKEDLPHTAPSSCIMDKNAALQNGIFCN
T3 sequence (Q9H228 whole entry): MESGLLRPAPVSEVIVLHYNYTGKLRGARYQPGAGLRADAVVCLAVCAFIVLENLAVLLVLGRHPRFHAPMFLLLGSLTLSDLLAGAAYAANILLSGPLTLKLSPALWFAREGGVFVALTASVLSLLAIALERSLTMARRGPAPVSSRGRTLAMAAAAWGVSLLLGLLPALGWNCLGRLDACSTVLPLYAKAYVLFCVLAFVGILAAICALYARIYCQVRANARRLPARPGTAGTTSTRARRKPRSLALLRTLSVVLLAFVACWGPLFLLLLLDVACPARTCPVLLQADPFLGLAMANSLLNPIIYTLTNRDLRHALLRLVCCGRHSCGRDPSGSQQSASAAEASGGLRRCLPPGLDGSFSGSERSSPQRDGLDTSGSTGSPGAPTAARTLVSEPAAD
T1 sequence (P21453 whole entry): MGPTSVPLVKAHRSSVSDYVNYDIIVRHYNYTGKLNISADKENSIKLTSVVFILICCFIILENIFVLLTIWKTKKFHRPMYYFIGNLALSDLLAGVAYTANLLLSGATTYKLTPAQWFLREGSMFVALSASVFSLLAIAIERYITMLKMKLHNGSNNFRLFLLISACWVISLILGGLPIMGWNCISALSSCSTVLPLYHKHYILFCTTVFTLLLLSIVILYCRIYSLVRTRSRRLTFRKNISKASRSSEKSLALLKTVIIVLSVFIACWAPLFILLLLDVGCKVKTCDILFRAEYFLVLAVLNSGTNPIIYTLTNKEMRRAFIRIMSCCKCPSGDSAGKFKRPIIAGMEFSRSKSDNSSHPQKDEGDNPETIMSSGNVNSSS

In the case of `CCc1cccc(Cl)c1COc1ccc2c(c1)CCC(NCc1cc(=O)[nH]o1)C2` (stereo not drawn) [Compound 220, 5-[[[6-[(2-chloro-6-ethyl-phenyl)methoxy]tetralin-2-yl]amino]methyl]isoxazol-3-one], the EC50 in experiment [1] is less than 1000 nM; in experiment [2] it was more than 1000 nM; in experiment [3] (S1P5 EC50 range), less than 10 nM; in experiment [4], less than 1000 nM.
With `CCc1cccc(Cl)c1COc1ccc2c(c1)CCC(NCC(=O)NO)C2` (stereo not drawn) [Compound 236, 2-((6-((2-chloro-6-ethylbenzyl)oxy)-1,2,3,4-tetrahydronaphthalen-2-yl)amino)acetohydroxamic acid], the EC50 in experiment [1] (setting [5]) was more than 1000 nM; in experiment [2] (setting [6]), more than 1000 nM; in experiment [3] (setting [7]), less than 10 nM; in experiment [4] (setting [8]) it was less than 1000 nM.
Consider `CN(CC(=O)O)C1COc2cc(-c3ccc(OCc4ccccc4)cc3)ccc2C1` (stereo not drawn) [Compound 238, 2-((7-(4-(benzyloxy)phenyl)chroman-3-yl)(methyl)amino)acetic acid], for which the EC50 in experiment [1] (setting [5]) is less than 1000 nM; in experiment [2] (setting [6]), more than 1000 nM; in experiment [3] (setting [7]), 10 to 100 nM; in experiment [4] (setting [8]), more than 1000 nM.
